We go through six molecules from patent US6362219B1 (Council of Scientific and Industrial Research, priority 1999, dated 2002).

Structures are written as SMILES. “And” between values parts separate entries of the source, which are not always exact repeats. Equal entries are not always repeated. Where two headings read alike, the source gives them in different places.

For data set [1] the following is noted: cited from earlier work.
The nature of a further data set: Safety in healthy mice. The class given is in vivo. The note with it: 30 mg/kg DHA × 5, 20 ± 1 g mice.
For data set [2], the system named is multi-drug resistant strain of P. yoelii nigeriensis. The data set is described as follows: Blood schizontocidal activity in Swiss mice and baby mice by intramuscular route. The note with it: day 30. The data set is classed as in vivo, Plasmodium yoelii nigeriensis. The procedure:
Test Parasite: Multi-drug resistant Plasmodium yoeli nigerienes (Rodent malaria strian). The P. yoeli nigerienses is a multi-drug resistant strain which is resistant to high oral doses of chloroquine (128 mg/kg×4), amodiaquine (128 mg/kg×4), meperaine (128 mg/kg×4), mefloquine (128 mg/kg×4), quinine (400 mg/kg×4) and halofantrine (32 mg/kg×4). […]. […] The tail blood smears of the mice were examined periodically after Giemsa staining upto 30 days post-infection.
Drug treatment was started on day 0 (ie day of infection). Mice showing negative blood slide upto day 30 were considered as cured.

The conditions of data set [3]: oral artesunate; 95/Cl 387-9410, range 79-1394; cited from earlier work.
For data set [4] the following is noted: cited from earlier work; for maximum plasma concentration by im route: in ng/mL.
The conditions of data set [5]: cited from earlier work. This is another data set of the same source.
The conditions of data set [6]: oral tablets, 60 mg dose, cited from earlier work.
Data set [7] deals with multi-drug resistant P. yoelii nigeriensis. The data set is described as follows: Blood schizontocidal activity in Swiss mice by rectal route. The class given is in vivo, Plasmodium yoelii nigeriensis. The following applies: for Cure-rate Day 30 (%) / Parasitaemia % Day 5 / Parasitaemia % Day 7: in oil; for Parasitaemia % Day 5 / Parasitaemia % Day 7: 8 mice. The procedure:
Test Parasite: Multi-drug resistant Plasmodium yoeli nigerienes (Rodent malaria strian). The P. yoeli nigerienses is a multi-drug resistant strain which is resistant to high oral doses of chloroquine (128 mg/kg×4), amodiaquine (128 mg/kg×4), meperaine (128 mg/kg×4), mefloquine (128 mg/kg×4), quinine (400 mg/kg×4) and halofantrine (32 mg/kg×4). […]. […] For higher doses (15 and 20 mg/kg) the drug was given in divided doses by rectal route. The tail blood smears of the mice were examined periodically after Giemsa staining upto 30 days post-infections.
Drug is dissolved in sterile ground nut oil for adminisitration.

For data set [8] the following is noted: cited from earlier work. The source holds these as a separate data set.
Data set [9] concerns multi-drug resistant P. yoelii nigeriensis. In words: Blood schizontocidal activity in Swiss mice by oral route. The class given is in vivo, Plasmodium yoelii nigeriensis. The note with it: oral in oil, 30 mg/kg × 5, mice 25 ± 1 g. The procedure:
Test Parasite: Multi-drug resistant Plasmodium yoeli nigerienes (Rodent malaria strian). The P. yoeli nigerienses is a multi-drug resistant strain which is resistant to high oral doses of chloroquine (128 mg/kg×4), amodiaquine (128 mg/kg×4), meperaine (128 mg/kg×4), mefloquine (128 mg/kg×4), quinine (400 mg/kg×4) and halofantrine (32 mg/kg×4). […].

A further data set has as its system P. falcipurum. The note with it: rectal suppository; cited from earlier work.
For data set [10], the system named is malaria. The following applies: cited from earlier work.
The conditions of data set [11]: rabbit, in vivo; cited from earlier work.
For data set [12] the following is noted: dog, in vivo; cited from earlier work.
Data set [13] has as its system malaria. The note with it: cited from earlier work. This is another data set of the same source.
For data set [14] the following is noted: aqueous solution at pH 7-8; cited from earlier work.
The mark [15] stands for this setting: 5 mg/kg × 7, Swiss mice 20 ± 1 g.
[16] abbreviates: 20 mg/kg × 7, Swiss mice 20 ± 1 g.
[17] abbreviates: following oral artesunate administration.

Turning to `C[C@H]1[C@@H](O)O[C@@H]2O[C@@]3(C)CC[C@H]4[C@H](C)CC[C@@H]1[C@@]24OO3` [DHA, Dihydroartemisinin], in data set [1] (im route), the “DHA activity AUC” value is on record as 3445 n Mlo l^−1 h and the “duration of activity due to DHA” value was “over 30 h”. Further, in data set [1] (oral dose), the “duration of effective level” value is recorded as at most 10 h. In addition, in the data set “Safety in healthy mice”, the “Safety in Healthy mice” value was “Safe 8/8”. The “Cure rate (%)” value in data set [2] (Expt. I, IM in oil, 5 mg/kg × 5, mice 20 ± 1 g) is recorded as 100% (8/8). Also, the “Cure rate (%)” value in [2] (Expt. II, im in oil, 5 mg/kg × 5, mice 20 ± 1 g) is recorded as 100% (8/8). Further, the “Cure rate (%)” value in [2] (Expt. II, im in oil, 10 mg/kg × 5, mice 20 ± 1 g) is 100% (8/8). Moreover, the “Cure rate (%)” value in data set [2] (Expt. III, im in oil, 5 mg/kg × 5, baby mice 12 ± 1 g) was 100% (9/9). The “peak plasma concentration of DHA” value in data set [3] is listed as 664 ng of DHA/ml. For the same molecule, the “maximum plasma concentration by im route” value in data set [4] (rats) is 1579±443. Besides, in [4] (rats, single IM dose), the “Absorption 0-8 h” value is 85.4±12.1% and 85.4%; the Area under plasma concentration was 2.72 µg·h/mL; the Elimination half life was 266 ± 16.2 min; the Mean absorption time is recorded as 0.21 h. Moreover, in data set [4] (rats, single IM dose), the “Time of maximum plasma Concentration” value was 17.5 min and the “maximum plasma concentration” value was 1579 ng/mL. Besides, in data set [5] (oral, rats), the Elimination half life was 296 ± 43.8 min and the “area under plasma concentration time curve” value is given as 9615±56 ngh ml^−1. Besides, in data set [6] (four subjects), the “peak plasma levels of dihydroartemisinin” value is 0.26 to 0.71 µg/mL. In addition, the tolerability result in data set [6] (six cases) is recorded as “well tolerated in 2 subjects while 4 subjects experienced mild headache, nausea or vomiting”. Also, in data set [6], the “complete excretion by” value is at most 6 h and the elimination half-life is 42.6 to 87 min. In data set [7] (5 mg/kg × 7, of 8 mice), the “number of mice negative (-ve) Day 5” value is recorded as “(8) 4-ve” and the “number of mice negative (-ve) Day 7” value is “(8) 4-ve”. In data set [7] (setting [15]), the “Cure-rate Day 30 (%)” value is recorded as 25%, the “Parasitaemia % Day 5” value is 0.83 ± 1.31% and the “Parasitaemia % Day 7” value is on record as 1.12 ± 1.55%. Also, in [7] (setting [16]), the “Cure-rate Day 30 (%)” value amounted to 87%, the “Parasitaemia % Day 5” value amounted to 0.0% and the “Parasitaemia % Day 7” value turned out to be 0.0%. Besides, in [8] (setting [17]), the “DHA level compared to that of artesunate” value is recorded as 5 fold and the maximum plasma level was 0.57 ± 0.18 µg/mL. In addition, the “Cure rate (%) Day 30” value in [9] worked out at 100%.
With `CCO[C@H]1O[C@@H]2O[C@@]3(C)CC[C@H]4[C@H](C)CC[C@@H]([C@H]1C)[C@@]24OO3` [arteether], in data set [4] (rats), the “maximum plasma concentration by im route” value was 160±12.4. Moreover, in [4] (rats, single IM dose), the Distribution half life was 20.4 ± 4.2 min, the Mean absorption time is listed as 0.25 ± 0.06 h, the “Time of maximum plasma Concentration” value is 41.4 ± 14.7 min and the “maximum plasma concentration” value was 160.7 ± 12.4 ng/mL. Further, the “Absorption 0-8 h” value in data set [4] (rats, single IM dose, listed as AE) is recorded as 34.0±9.6%. In data set [5] (oral, rats), the Elimination half life is 107 ± 28.2 min, the “area under plasma concentration time curve” value is recorded as 298±68 ngh ml^−1 and the maximum plasma concentration was 324 ± 10 ng/mL.
For the molecule `CO[C@H]1O[C@@H]2O[C@@]3(C)CC[C@H]4[C@H](C)CC[C@@H]([C@H]1C)[C@@]24OO3` [artemether], the “maximum plasma concentration by im route” value in [4] (rats) is 692±234. For the same molecule, in data set [4] (rats, single IM dose), the “Absorption 0-8 h” value was 54.2±25.9% and 54.3%; the Area under plasma concentration is 1.01 µg·h/mL; the Distribution half life is 13.8 min; the Elimination half life is 107 ± 48 min. In [4] (rats, single IM dose), the Mean absorption time is given as 0.14 h, the “Time of maximum plasma Concentration” value is given as 28.8 min and the “maximum plasma concentration” value was 692 ng/mL. In addition, in data set [5] (oral, rats), the Elimination half life is 122 ± 10.8 min, the “area under plasma concentration time curve” value is on record as 306±52 ngh ml^−1 and the maximum plasma concentration is 381 ± 113 ng/mL.
On to `C[C@@H]1CC[C@H]2[C@@H](C)C(=O)O[C@@H]3O[C@@]4(C)CC[C@@H]1[C@]32OO4` [artemisinin], for which the recovery from coma with P. falcipurum is 24 (18-30) h. In addition, the cure rate with malaria [10] (high doses upto 5.0 g) is reported as 55%.
For `C[C@H]1[C@H](OC(=O)CCC(=O)O)O[C@@H]2O[C@@]3(C)CC[C@H]4[C@H](C)CC[C@@H]1[C@@]24OO3` [artesunate], in [11], the elimination half-life was 2 to 4 min. Moreover, the elimination half-life in [12] is given as 27 min. In the data set with malaria [13], the “times more potent than artemisinin” value is given as 3.2 times. Further, in data set [4] (rat, in vivo, im), the Distribution half life is 9 ± 3.6 min and the Elimination half life was 32.4 ± 8.4 min. In addition, the “Time of maximum plasma Concentration” value in [4] (rat, in vivo) is listed as 15.0 ± 4.1 min. In [5] (rat, in vivo, po), the Elimination half life was 80.4 ± 1560 min, the “area under plasma concentration time curve” value is listed as 217±34 ngh ml^−1 and the maximum plasma concentration was 208 ± 25 ng/mL. Besides, the cure rate in the data set on malaria [10] (upto 750 mg) was 70-90%. Moreover, the maximum plasma level in data set [8] (in vivo, po) was 0.12 ± 0.11 µg/mL.
As for `C[C@H]1[C@H](OC(=O)CCC(=O)[O-])O[C@@H]2O[C@@]3(C)CC[C@H]4[C@H](C)CC[C@@H]1[C@@]24OO3.[Na+]` [sodium artesunate], the “time of hydrolysis to DHA” value in [14] is recorded as at most 1 h.
